No end group written: not given here.
What was measured:
[1] = DSS-induced mouse model of UC; cited from earlier work
[2] = Treatment of Alpha-1 Antitrypsin Deficiency patient (Example 4); type: in vivo, human; details: orally 50 mg once per day; within two weeks
Text: In this example, a patient is diagnosed with AATD after presenting symptoms related to difficulty breathing and mild jaundice. […] The patient receives conventional therapy (e.g., bronchodilators, inhaled corticosteroids, pulmonary rehabilitation and supplemental oxygen). […] This treatment leads to some improvement, but the patient returns to the clinic seeking an alternative treatment.
The treating physician administers a compound of Formula DCT-5A to the patient: […]
The patient is administered the drug orally (i.e., 50 mg, once per day). Within two weeks, the signs/symptoms of AATD are resolved by about 80% and the patient appears in good health. The patient resumes the treatment and is periodically monitored for changes in their condition.

[3] = Treatment of PR3 positive ulcerative colitis patient (Example 7); type: in vivo, human; details: intravenously 5 mcg/minute for 1 hour, second dose after 24 hours; within two days
Description: In this example, a patient is admitted to a hospital with cough and fever (over 39.0° C.). About one month prior, they had presented with fever (over 39.0° C.), diarrhea and bloody bowel discharge. Upon admission, their hemoglobin was 8.9 g/dl and the serum C-reactive protein level was 6.8 mg/dl. […] Further, the patient tested positive for PR3-ANCA serological marker.
The treating physician administers a compound of Formula DCT-5A to the patient. The patient is administered the drug intravenously (i.e., 5 mcg/minute for 1 hour). The patient is administered a second dose after 24 hours. […] Thereafter, the patient is administered the drug orally (50 mg per day). The patient resumes the treatment and is periodically monitored for changes in their condition.

[4] = Treatment of severe inflammation, post-surgery patient (Example 5); type: in vivo, human; details: intravenously 5 mcg/minute for 1 hour, second dose after 24 hours; within two days
Description: In this example, a patient is recovering from surgery following a traumatic vehicle accident. The treating physician anticipates further complications such as acute respiratory distress syndrome (ARDS) and (multiple) organ failure. To prevent this, the treating physician administers a compound of Formula DCT-5A to the patient. The patient is administered the drug intravenously (i.e., 5 mcg/minute for 1 hour). The patient is administered a second dose after 24 hours. […] The patient resumes the treatment and is periodically monitored for changes in their condition.

[5] = Treatment of Granulomatosis with Polyangiitis patient (Example 6); type: in vivo, human; details: GPA patient; orally 50 mg once per day; within one week
Description: In this example, a patient complains of several symptoms including sinus pain, cough, fever, joint aches, blood in urine, and hearing loss. A physician diagnosis them with GPA after analyzing diagnostic markers.
The treating physician anticipates further complications such as acute respiratory distress syndrome (ARDS) and (multiple) organ failure. To prevent this, the treating physician administers a compound of Formula DCT-5A to the patient. The patient is administered the drug orally (i.e., 50 mg, once per day). Within one week, the signs/symptoms of AATD are resolved by about 90% and the patient appears in good health. The patient resumes the treatment and is periodically monitored for changes in their condition.

[6] = CF patients in an exacerbated state of inflammation; cited from earlier work

elafin: polypeptide inhibitor of some peptidases and elastases; inhibits HNE, PR3 and pancreatic elastase (AQEPVKGPVSTKPGSCPIILIRCAMLNPPNRCLKDTDCPGIKKCCEGSCGMACFVPQ; ends and bridges not checked; cysteine pairing not given here; UniProt P19957 61-117, looked up)
reducing inflammation [1]: successful in reducing inflammation in a dose-dependent manner

N=C(N)NCCC(CCCc1ccc(F)cc1)C(=O)NN1CN(CCCc2ccccc2)[C@H](Cc2ccc(O)cc2)C1=O (stereo partly shown) [DCT-5A]
signs/symptoms of AATD resolved [2]: about 80%
clinical course of the patient [3]: shows signs of improvement
clinical course of the patient [4]: shows signs of improvement
signs/symptoms of AATD resolved [5]: about 90%

A1PI: α1-proteinase inhibitor, a serpin; endogenous inhibitor of neutrophilic serine proteinases
effect on IL6, IL1β and NE activity [6]: decrease

B1: SLPI: locally produced chelonianin; inhibits HNE but not PR3 (protein, UniProt P03973 26-132, looked up)
Antileukoproteinase: SGKSFKAGVCPPKKSAQCLRYKKPECQSDWQCPGKKRCCPDTCGIKCLDPVDTPNPTRRKPGKCPVTYGQCLMLNPPNFCEMDGQCKRDLKCCMGMCGKSCVSPVKA
reducing inflammation [1]: also successful

— patent US20250051286A1, “SMALL MOLECULE INHIBITORS OF PR3 AND HNE AND USES THEREOF” (ORIXA THERAPEUTICS LLC, priority 2021, published 2025)
